Data from PubChem BioAssay (NCI).
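Cells were grown in 96-well plates and exposed to each compound for 48 hours at five concentrations; endpoints were interpolated linearly between bracketing concentrations, or set to the highest concentration if not reached. TGI: concentration producing complete growth inhibition.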

Columns and labels:
Experiment in all cases: NCI anticancer screen, dose series, 48 h
OVCAR-5 ovarian = system: OVCAR-5 ovarian
SW-620 colon = system: SW-620 colon
SF-295 CNS = system: SF-295 CNS
OVCAR-8 ovarian = system: OVCAR-8 ovarian
UO-31 renal = system: UO-31 renal
UACC-62 melanoma = system: UACC-62 melanoma
EKVX NSCLC = system: EKVX NSCLC
OVCAR-3 ovarian = system: OVCAR-3 ovarian
HT29 colon = system: HT29 colon
RPMI-8226 leukemia = system: RPMI-8226 leukemia
MDA-MB-231 breast = system: MDA-MB-231 breast
RXF 393 renal = system: RXF 393 renal
MDA-N = system: MDA-N
NCI-H460 lung = system: NCI-H460 lung
DU-145 prostate = system: DU-145 prostate
BT-549 breast = system: BT-549 breast
NCI-H226 lung = system: NCI-H226 lung
NCI/ADR-RES ovarian = system: NCI/ADR-RES ovarian
HOP-62 NSCLC = system: HOP-62 NSCLC
K-562 leukemia = system: K-562 leukemia
U251 CNS = system: U251 CNS
TK-10 renal = system: TK-10 renal
SF-268 CNS = system: SF-268 CNS
PC-3 prostate = system: PC-3 prostate
SK-MEL-5 melanoma = system: SK-MEL-5 melanoma
NCI-H23 lung = system: NCI-H23 lung
COLO 205 colon = system: COLO 205 colon
MOLT-4 leukemia = system: MOLT-4 leukemia
KM12 colon = system: KM12 colon
ACHN renal = system: ACHN renal
UACC-257 melanoma = system: UACC-257 melanoma
A549 NSCLC = system: A549 NSCLC
HCT-15 colon = system: HCT-15 colon
MALME-3M melanoma = system: MALME-3M melanoma
CCRF-CEM leukemia = system: CCRF-CEM leukemia
MDA-MB-435 = system: MDA-MB-435
CAKI-1 renal = system: CAKI-1 renal
MCF7 breast = system: MCF7 breast
SK-MEL-28 melanoma = system: SK-MEL-28 melanoma
OVCAR-4 ovarian = system: OVCAR-4 ovarian
SN12C renal = system: SN12C renal
M14 melanoma = system: M14 melanoma
HCC-2998 colon = system: HCC-2998 colon
SK-MEL-2 melanoma = system: SK-MEL-2 melanoma
SK-OV-3 ovarian = system: SK-OV-3 ovarian
NCI-H522 lung = system: NCI-H522 lung
SNB-19 CNS = system: SNB-19 CNS
IGROV1 ovarian = system: IGROV1 ovarian
SNB-75 CNS = system: SNB-75 CNS
T-47D breast = system: T-47D breast
HCT-116 colon = system: HCT-116 colon
HS 578T breast = system: HS 578T breast
786-0 renal = system: 786-0 renal
HL-60(TB) leukemia = system: HL-60(TB) leukemia
LOX IMVI melanoma = system: LOX IMVI melanoma
A498 renal = system: A498 renal
HOP-92 NSCLC = system: HOP-92 NSCLC
SR leukemia = system: SR leukemia

Measured: TGI

CC(C)(CO)N1C(=O)c2ccccc2C1(O)c1ccc(Cl)cc1 (configuration not stated)
> 100 µM: OVCAR-5 ovarian | SW-620 colon | SF-295 CNS | OVCAR-8 ovarian | UO-31 renal | UACC-62 melanoma | EKVX NSCLC | OVCAR-3 ovarian | HT29 colon | RPMI-8226 leukemia | MDA-MB-231 breast | RXF 393 renal | MDA-N | NCI-H460 lung | DU-145 prostate | BT-549 breast | NCI-H226 lung | NCI/ADR-RES ovarian | HOP-62 NSCLC | K-562 leukemia | U251 CNS | TK-10 renal | SF-268 CNS | PC-3 prostate | SK-MEL-5 melanoma | NCI-H23 lung | COLO 205 colon | MOLT-4 leukemia | KM12 colon | ACHN renal | UACC-257 melanoma | A549 NSCLC | HCT-15 colon | MALME-3M melanoma | CCRF-CEM leukemia | MDA-MB-435 | CAKI-1 renal | MCF7 breast | SK-MEL-28 melanoma | OVCAR-4 ovarian | SN12C renal | M14 melanoma | HCC-2998 colon | SK-MEL-2 melanoma | SK-OV-3 ovarian | NCI-H522 lung | SNB-19 CNS | IGROV1 ovarian | SNB-75 CNS | T-47D breast | HCT-116 colon | HS 578T breast | 786-0 renal | HL-60(TB) leukemia

O=C(O)Cc1ccc2nc(COC(=O)c3ccccc3)sc2c1
> 100 µM: OVCAR-5 ovarian | SW-620 colon | SF-295 CNS | OVCAR-8 ovarian | UO-31 renal | UACC-62 melanoma | EKVX NSCLC | OVCAR-3 ovarian | RPMI-8226 leukemia | MDA-MB-231 breast | RXF 393 renal | MDA-N | NCI-H460 lung | DU-145 prostate | BT-549 breast | NCI/ADR-RES ovarian | HOP-62 NSCLC | K-562 leukemia | U251 CNS | TK-10 renal | SF-268 CNS | PC-3 prostate | SK-MEL-5 melanoma | NCI-H23 lung | COLO 205 colon | KM12 colon | ACHN renal | UACC-257 melanoma | A549 NSCLC | HCT-15 colon | MALME-3M melanoma | LOX IMVI melanoma | MDA-MB-435 | CAKI-1 renal | MCF7 breast | SK-MEL-28 melanoma | OVCAR-4 ovarian | SN12C renal | M14 melanoma | HCC-2998 colon | SK-MEL-2 melanoma | SK-OV-3 ovarian | NCI-H522 lung | SNB-19 CNS | A498 renal | HOP-92 NSCLC | IGROV1 ovarian | SNB-75 CNS | T-47D breast | SR leukemia | HCT-116 colon | HS 578T breast | 786-0 renal

O=C(O)CNC(=O)c1ccc([As](=O)(O)O)cc1
> 100 µM: OVCAR-5 ovarian | SW-620 colon | SF-295 CNS | OVCAR-8 ovarian | UO-31 renal | UACC-62 melanoma | EKVX NSCLC | OVCAR-3 ovarian | HT29 colon | RPMI-8226 leukemia | MDA-MB-231 breast | RXF 393 renal | MDA-N | NCI-H460 lung | DU-145 prostate | BT-549 breast | NCI-H226 lung | NCI/ADR-RES ovarian | HOP-62 NSCLC | K-562 leukemia | U251 CNS | TK-10 renal | SF-268 CNS | PC-3 prostate | SK-MEL-5 melanoma | NCI-H23 lung | COLO 205 colon | MOLT-4 leukemia | KM12 colon | ACHN renal | A549 NSCLC | HCT-15 colon | MALME-3M melanoma | CCRF-CEM leukemia | LOX IMVI melanoma | MDA-MB-435 | CAKI-1 renal | MCF7 breast | SK-MEL-28 melanoma | OVCAR-4 ovarian | SN12C renal | M14 melanoma | SK-MEL-2 melanoma | SK-OV-3 ovarian | NCI-H522 lung | SNB-19 CNS | A498 renal | HOP-92 NSCLC | IGROV1 ovarian | SNB-75 CNS | T-47D breast | HCT-116 colon | HS 578T breast | 786-0 renal | HL-60(TB) leukemia
